Source: US12312356B2, “Anthelmintic heterocyclic compounds” (Boehringer Ingelheim Vetmedica GmbH, priority 2020, dated 2025)

Experiments:
[1] = test system: microfilariae of Dirofilaria immitis; assay: Screening method to test activity against microfilaria of Dirofilaria immitis (motility, dose response); type: cell-based; settings: 72 h, read-out: EC50 value (motility of the microfilaria)
[2] = test system: L4 stage Dirofilaria immitis worms; assay: Screening method to test activity against L4 stage larvae of Dirofilaria immitis (motility, dose response); type: cell-based; settings: 72 h, read-out: EC50 value (motility of L4 larvae)

Cc1nc2c(C(C)C)c(C(=O)N[C@H]3CCOc4ccccc43)cnn2c1-c1cc(F)cc(F)c1 [Compound 175, 3-(3,5-difluorophenyl)-N-[(4S)-3,4-dihydro-2H-1-benzopyran-4-yl]-8-isopropyl-2-methylimidazo[1,2-b]pyridazine-7-carboxamide]
EC50 [1]: 1 to 10 nM | EC50 [2]: 1 to 10 nM

Cc1nc2c(C(C)C)c(C(=O)N[C@H]3CCOc4ccccc43)cnn2c1-c1cc(Cl)cc(Cl)c1 [Compound 271, 3-(3,5-dichlorophenyl)-N-[(4S)-3,4-dihydro-2H-1-benzopyran-4-yl]-8-isopropyl-2-methylimidazo[1,2-b]pyridazine-7-carboxamide]
EC50 [1]: 1 to 10 nM | EC50 [2]: < 1 nM

Cc1nc2c(C(C)(C)F)c(C(=O)N[C@H]3CCOc4ccccc43)cnn2c1-c1cc(F)cc(F)c1 [Compound 277, 3-(3,5-difluorophenyl)-N-[(4S)-3,4-dihydro-2H-1-benzopyran-4-yl]-8-(2-fluoropropan-2-yl)-2-methylimidazo[1,2-b]pyridazine-7-carboxamide]
EC50 [1]: 1 to 10 nM | EC50 [2]: 1 to 10 nM

C=C(C)c1c(C(=O)N[C@H]2CCOc3ccccc32)cnn2c(-c3cc(F)cc(F)c3)c(C)nc12 [Compound 279, 3-(3,5-difluorophenyl)-N-[(4S)-3,4-dihydro-2H-1-benzopyran-4-yl]-2-methyl-8-(prop-1-en-2-yl)imidazo[1,2-b]pyridazine-7-carboxamide]
EC50 [1]: 10 to 100 nM

CC(C)c1c(C(=O)N[C@H]2CCOc3ccc(F)cc32)cnn2c(Cl)c(-c3cc(Cl)cc(Cl)c3)nc12 [Compound 304-0, 3-chloro-2-(3,5-dichlorophenyl)-N-[(4S)-6-fluoro-3,4-dihydro-2H-1-benzopyran-4-yl]-8-isopropylimidazo[1,2-b]pyridazine-7-carboxamide]
EC50 [2]: 1000 to 10000 nM

Cc1nc2c(C(C)(C)C)c(C(=O)N[C@H]3CCOc4ccccc43)cnn2c1-c1cc(Cl)cc(Cl)c1 [Compound 306, 8-tert-butyl-3-(3,5-dichlorophenyl)-N-[(4S)-3,4-dihydro-2H-1-benzopyran-4-yl]-2-methylimidazo[1,2-b]pyridazine-7-carboxamide]
EC50 [1]: 1 to 10 nM | EC50 [2]: < 1 nM

Cc1nc2c(C(C)C)c(NC(=O)[C@H]3CCOc4ccccc43)cnn2c1-c1cc(F)cc(F)c1 [Compound 320, (4S)—N-[3-(3,5-difluorophenyl)-8-isopropyl-2-methylimidazo[1,2-b]pyridazin-7-yl]-3,4-dihydro-2H-1-benzopyran-4-carboxamide]
EC50 [2]: 10 to 100 nM

Cc1nc2c(C(C)C)c(NC(=O)[C@@H]3CCOc4ccccc43)cnn2c1-c1cc(F)cc(F)c1 [Compound 320-0, (4R)—N-[3-(3,5-difluorophenyl)-8-isopropyl-2-methylimidazo[1,2-b]pyridazin-7-yl]-3,4-dihydro-2H-1-benzopyran-4-carboxamide]
EC50 [2]: 1000 to 10000 nM

Cc1nc2c(C(C)C)c(C(=O)N[C@H]3CCOc4ccccc43)cnn2c1C(C)(C)C [Compound 323, 3-tert-butyl-N-[(4S)-3,4-dihydro-2H-1-benzopyran-4-yl]-8-isopropyl-2-methylimidazo[1,2-b]pyridazine-7-carboxamide]
EC50 [1]: 10 to 100 nM | EC50 [2]: 100 to 1000 nM

Cc1nc2c(C(C)C)c(C(=O)N[C@H]3CCOc4ccccc43)cnn2c1CC(C)C [Compound 323-0, N-[(4S)-3,4-dihydro-2H-1-benzopyran-4-yl]-2-methyl-3-(2-methylpropyl)-8-(propan-2-yl)imidazo[1,2-b]pyridazine-7-carboxamide]
EC50 [1]: 10 to 100 nM | EC50 [2]: 10 to 100 nM

Cc1nc2c(C(C)C)c(C(=O)N[C@H]3CCOc4ccccc43)cnn2c1N1CCCCC1 [Compound 324, N-[(4S)-3,4-dihydro-2H-1-benzopyran-4-yl]-8-isopropyl-2-methyl-3-(piperidin-1-yl)imidazo[1,2-b]pyridazine-7-carboxamide]
EC50 [1]: < 1 nM | EC50 [2]: 1 to 10 nM

Cc1nc2c(C(C)C)c(C(=O)N[C@H]3CCOc4ccccc43)cnn2c1[C@H]1CC[C@H](C(F)(F)F)CC1 [Compound 326, N-[(4S)-3,4-dihydro-2H-1-benzopyran-4-yl]-8-isopropyl-2-methyl-3-[(1r,4r)-4-(trifluoromethyl)cyclohexyl]imidazo[1,2-b]pyridazine-7-carboxamide]
EC50 [2]: 10 to 100 nM

Cc1nc2c(C(C)C)c(C(=O)N[C@H]3CCOc4ccccc43)cnn2c1[C@H]1CC[C@@H](C(F)(F)F)CC1 [Compound 326-0, N—((S)-chroman-4-yl)-8-isopropyl-2-methyl-3-((1s,4R)-4-(trifluoromethyl)cyclohexyl)imidazo[1,2-b]pyridazine-7-carboxamide]
EC50 [1]: 10 to 100 nM | EC50 [2]: 1 to 10 nM

Cc1nc2c(C(C)C)c(C(=O)N[C@H]3CCOc4ccccc43)cnn2c1C1=CCC(C(F)(F)F)CC1 (stereo partly drawn) [Compound 327, N-[(4S)-3,4-dihydro-2H-1-benzopyran-4-yl]-8-isopropyl-2-methyl-3-[4-(trifluoromethyl)cyclohex-1-en-1-yl]imidazo[1,2-b]pyridazine-7-carboxamide]
EC50 [2]: 1 to 10 nM

CC(C)c1c(C(=O)N[C@H]2CCOc3ccccc32)cnn2c(-c3cc(Cl)cc(Cl)c3)cnc12 [Compound 352, 3-(3,5-dichlorophenyl)-N-[(4S)-3,4-dihydro-2H-1-benzopyran-4-yl]-8-isopropylimidazo[1,2-b]pyridazine-7-carboxamide]
EC50 [1]: 10 to 100 nM

Cc1nc2c(C(C)C)c(C(=O)N[C@H]3CCOc4ccccc43)cnn2c1C#N [Compound 366, 3-cyano-N-[(4S)-3,4-dihydro-2H-1-benzopyran-4-yl]-8-isopropyl-2-methylimidazo[1,2-b]pyridazine-7-carboxamide]
EC50 [2]: 1000 to 10000 nM

O=C(N[C@H]1CCOc2ccccc21)c1cnn2c(-c3cc(Cl)cc(Cl)c3)c(C(F)(F)F)nc2c1N1CCOCC1 [Compound 450, 3-(3,5-dichlorophenyl)-N-[(4S)-3,4-dihydro-2H-1-benzopyran-4-yl]-8-(morpholin-4-yl)-2-(trifluoromethyl)imidazo[1,2-b]pyridazine-7-carboxamide]
EC50 [1]: 100 to 1000 nM

O=C(N[C@H]1CCOc2ccccc21)c1cnn2c(-c3cc(Cl)cc(Cl)c3)cnc2c1N1CCOCC1 [Compound 511, 3-(3,5-dichlorophenyl)-N-[(4S)-3,4-dihydro-2H-1-benzopyran-4-yl]-8-(morpholin-4-yl)imidazo[1,2-b]pyridazine-7-carboxamide]
EC50 [1]: 10 to 100 nM

CC(=O)c1nc2c(C(C)C)c(C(=O)N[C@H]3CCOc4ccccc43)cnn2c1-c1cc(Cl)cc(Cl)c1 [Compound 558, 2-acetyl-3-(3,5-dichlorophenyl)-N-[(4S)-3,4-dihydro-2H-1-benzopyran-4-yl]-8-isopropylimidazo[1,2-b]pyridazine]
EC50 [1]: 10 to 100 nM

Cc1nc2c(C(C)(C)C)c(C(=O)NN3CCOc4ccccc43)cnn2c1-c1cc(Cl)cc(Cl)c1 [Compound 614, 8-tert-butyl-3-(3,5-dichlorophenyl)-N-(2,3-dihydro-1,4-benzoxazin-4-yl)-2-methylimidazo[1,2-b]pyridazine-7-carboxamide]
EC50 [1]: 1 to 10 nM
